From PubChem BioAssay (NCI)
Where “and” joins values, the source holds several entries; their conditions need not be identical. Identical values can stand only once.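 Each compound was tested at five concentrations against cells in 96-well plates for 48 hours. GI50: concentration for 50% inhibition of growth. TGI denotes the concentration required for complete inhibition of growth.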

Tests used:
Test in all cases: NCI tumour cell line growth inhibition, 48 h
[1] = tested on: RPMI-8226 leukemia
[2] = tested on: HOP-92 NSCLC
[3] = tested on: TK-10 renal
[4] = tested on: NCI-H522 lung
[5] = tested on: EKVX NSCLC
[6] = tested on: UACC-257 melanoma
[7] = tested on: SK-MEL-28 melanoma
[8] = tested on: NCI-H226 lung
[9] = tested on: CCRF-CEM leukemia
[10] = tested on: OVCAR-5 ovarian

SMILES	TGI [1] [µM]	TGI [2] [µM]	TGI [3] [µM]	TGI [4] [µM]	TGI [5] [µM]	TGI [6] [µM]	TGI [7] [µM]	TGI [8] [µM]	TGI [9] [µM]	TGI [10] [µM]	GI50 [1] [µM]	GI50 [2] [µM]	GI50 [3] [µM]	GI50 [4] [µM]	GI50 [5] [µM]	GI50 [6] [µM]	GI50 [7] [µM]	GI50 [8] [µM]	GI50 [9]	GI50 [10] [µM]
CC(C)CCC[C@@H](C)[C@H]1CC[C@H]2[C@@H]3CC[C@H]4C[C@@H](CCC=C(c5cc(Cl)c(O)c(C(=O)O)c5)c5cc(Cl)c(O)c(C(=O)O)c5)CC[C@]4(C)[C@H]3CC[C@]12C	> 100	> 100	> 100	> 100	> 100	> 100	> 100	> 100	> 100	> 100	–	–	–	–	–	–	–	–	–	–
O=c1c2cc(F)ccc2sc2c(N3CCNCC3)nc3ccc(F)cc3c12	4.89	2.52	3.47	3.39	3.04	3.7	3.17	3.03	5.24	3.07	2.16	1.18	1.94	1.7	1.62	1.88	1.74	1.53	2.06 µM	1.66
Cc1ccc(NC(=O)CCc2nc(N)nc(N)c2-c2ccccc2)cc1C	> 100	> 100	> 100	> 100	> 100	> 100	> 100	> 100	> 100	> 100	–	–	–	–	–	–	–	–	–	–
COc1ccc(OC)c(NC(=O)CCC/C(CC(=O)c2ccc(O)c(OC)c2)=N\Nc2nnc(C)n2N)c1	> 100	> 100	> 100	> 100	> 100	> 100	> 100	> 100	> 100	> 100	–	–	–	–	–	–	–	–	–	–
COc1ccc(-c2ccncc2)cc1C(N)=O	> 25	> 25	> 25	> 25	> 25	> 25	> 25	> 25	> 25	> 25	> 25	> 25	> 25	> 25	> 25	> 25	> 25	> 25	> 25 µM	> 25
Cc1[nH]nc(C(F)(F)F)c1N=NN(C)C	5.15	23.5	22.9	2.98	11.5	28.2	33	6.36	16	–	–	–	–	–	–	–	–	–	–	–
COc1ccc(NC(=O)CSC2=C(Nc3cccc(Br)c3)C(=O)N(Cc3ccccc3)C2=O)cc1Cl	> 100	> 100	> 100	82.2	> 100	> 100	> 100	> 100	29.6	–	4.14	24.5	44.4	6.85	84.8	> 100	> 100	> 100	1.72 µM	–
CCOC(=O)C(=O)Nc1ccccc1C	> 100	> 100	> 100	> 100	> 100	–	> 100	> 100	> 100	> 100	–	–	–	–	–	–	–	–	–	–
COC(=O)/C=C(C)/C=C/C1OC(C)OCC1O (stereo not drawn)	> 100	> 100	> 100	> 100	> 100	> 100	–	> 100	> 100	> 100	–	–	–	–	–	–	–	–	–	–
COc1cccc(/C(C#N)=C/c2nc3c(N4CCOCC4)nc(Cl)nc3n2C)c1	1.87	2.21	–	2.2	2.84	2.9	3.1	3.35	0.934	3.57	0.376	0.453	–	0.567	1.44	1.41	1.61	1.56	0.318 µM	1.55
CCOC(=O)C(Cc1c[nH]c2c(N(CCO)CCO)cccc12)(NC(C)=O)C(=O)OCC	–	> 1000	> 1000	> 1000	> 1000	> 1000	> 1000	> 1000	430	> 1000	–	> 1000	> 1000	> 1000	> 1000	> 1000	736	439	59.4 µM and 190 µM	> 1000
N#Cc1ccccc1C(Cl)(Cl)c1cnccn1	–	65.4	> 100	38.4	> 100	> 100	> 100	> 100	50.3	> 100	–	–	–	–	–	–	–	–	–	–
CCNC(=O)COc1ccc(Br)cc1Br	> 100	> 100	–	> 100	34.3	> 100	> 100	> 100	> 100	> 100	–	–	–	–	–	–	–	–	–	–
CC1=C[C@H]2c3c([nH]c4ccccc34)C(c3c[nH]c4ccccc34)[C@H]2CC1 (stereo partly drawn)	12	5.34	28.5	18.5	29.7	27.9	26	27.7	10.9	–	–	–	–	–	–	–	–	–	–	–
